Experimental data: patent US20220380347A1, “INHIBITORS OF CYSTEINE PROTEASES AND METHODS OF USE THEREOF” (Pardes Biosciences, Inc., priority 2020, published 2022)
Like-named read-outs stand apart in the source and are kept apart here.

Key:
HCov OC43 = test: HCoV OC43 cytopathic effect (CPE) assay, CellTiter Glo; type: cell-based, human coronavirus (HCov) OC43
[1] = target: COVID-19 (nCoV-2019, SARS-CoV2) Mpro (Severe acute respiratory syndrome coronavirus 2, UniProt P0DTD1); test: COVID-19 (nCoV-2019, SARS-CoV2) Mpro enzymatic assay; type: biochemical; conditions: 25 nM Mpro, 25 μM substrate; read-out: COVID-19 Mpro IC50
229E Mpro = 229E Mpro (Human coronavirus 229E, UniProt P0C6X1); test: 229E Mpro enzymatic assay (standard methods, SARS-CoV2 Mpro assay given as exemplary); type: biochemical, human coronavirus (HCov) 229E
Procedure, shortened: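 IC50 for 229E Mpro by standard methods; exemplary SARS-CoV-2 protocol used C-His6-tagged Mpro from E. coli, 25 nM enzyme, 25 μM substrate (Km 13.5 μM), in Tris-HCl pH 7.3, NaCl, EDTA, TCEP, 0.1% BSA. Inhibition normalised to no-compound and full-effect controls; four-parameter fit.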

[2] = read-out: OC43 IC50 (uM) MEDIAN, median
[3] = Betacoronavirus 1, OC43, read-out: OC43 IC50 (uM) MEDIAN, median

Sequence of 229E Mpro (P0C6X1 2966-3267): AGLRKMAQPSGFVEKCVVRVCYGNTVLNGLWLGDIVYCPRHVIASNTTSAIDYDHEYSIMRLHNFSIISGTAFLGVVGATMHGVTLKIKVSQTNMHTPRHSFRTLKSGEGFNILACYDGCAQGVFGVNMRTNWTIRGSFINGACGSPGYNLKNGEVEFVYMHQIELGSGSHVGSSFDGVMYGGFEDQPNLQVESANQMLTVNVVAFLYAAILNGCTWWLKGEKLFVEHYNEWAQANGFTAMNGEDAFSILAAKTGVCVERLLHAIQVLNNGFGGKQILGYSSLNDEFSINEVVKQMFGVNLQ

| SMILES | IC50 (HCov OC43; [2]) [µM] | IC50 [1] [µM] | EC50 (229E Mpro; read-out: 229E Mpro EC50) [µM] | EC50 (229E Mpro; 229E Mpro EC50) [µM] | IC50 (HCov OC43; [3]) [µM] | other results |
| --- | --- | --- | --- | --- | --- | --- |
| N#CN1C[C@H](O)C[C@@H]1C(=O)N(c1ccc(C2CC2)c(F)c1)C(C(=O)NC1CCCCC1)c1cccnc1 (single isomer, unassigned) [Compound 767 Isomer 2] | 2 to 10 | 2 to 10 | < 2 |  |  |  |
| N#CN1C[C@H](O)C[C@@H]1C(=O)N(c1ccc(C(F)(C(F)(F)F)C(F)(F)F)cc1)C(C(=O)NC1CCCCC1)c1cccnc1 (single isomer, unassigned) [Compound 779 Isomer 2] | 2 to 10 | 2 to 10 |  | 2 to 10 |  |  |
| N#CN1C[C@H](O)C[C@@H]1C(=O)N(c1ccc(S(F)(F)(F)(F)F)cc1)C(C(=O)NC1CCCCC1)c1cccnc1 (single isomer, unassigned) [Compound 791 Isomer 1] |  | < 2 |  | < 2 | < 2 |  |
| N#CN1C[C@H](O)C[C@@H]1C(=O)N(c1ccc(C2(C(F)(F)F)CC2)cc1)C(C(=O)NC1CCC(F)(F)CC1)c1cncc(F)c1 (single isomer, unassigned) [Compound 815a Isomer 1] |  | < 2 |  | < 2 | < 2 |  |
| N#CN1C[C@H](O)C[C@@H]1C(=O)N(c1ccc(C2(C(F)(F)F)CC2)cc1)C(C(=O)NC1CCC(F)(F)CC1)c1cncc(F)c1 (single isomer, unassigned) [Compound 815a Isomer 2] | < 2 | < 2 | < 2 |  |  |  |
| N#CN1C[C@@H](OC(F)F)C[C@@H]1C(=O)N(c1ccc(S(F)(F)(F)(F)F)cc1)C(C(=O)NC1CCC(F)(F)CC1)c1cncc(F)c1 (single isomer, unassigned) [Compound 823a Isomer 1] |  | < 2 |  | < 2 | < 2 |  |
| N#CN1C[C@@H](OC(F)F)C[C@@H]1C(=O)N(c1ccc(S(F)(F)(F)(F)F)cc1)C(C(=O)NC1CCC(F)(F)CC1)c1cncc(F)c1 (single isomer, unassigned) [Compound 823a Isomer 2] | 2 to 10 | < 2 | < 2 |  |  |  |
| CC(C)(C)c1ccc(N(C(=O)[C@H]2CC(F)(F)CN2C#N)C(C(=O)NC2CCCCC2)c2cccnc2)cc1 (single isomer, unassigned) [Compound 876 Isomer 2] |  | 10 to 30 | < 2 |  |  | IC50 (HCov OC43; read-out: OC43 IC50 (uM) MEDIAN, median, listed as 876 Isomer 2): > 30 µM |
| CC(C)(C)c1ccc(N(C(=O)[C@H]2[C@H](F)CCN2C#N)C(C(=O)NC2CCCCC2)c2cccnc2)cc1 (single isomer, unassigned) [Compound 910 Isomer 1] |  | < 2 |  | < 2 | < 2 |  |
| CC(C)(C)c1ccc(N(C(=O)[C@H]2[C@H](F)CCN2C#N)C(C(=O)NC2CCCCC2)c2cccnc2)cc1 (single isomer, unassigned) [Compound 910 Isomer 2] | 2 to 10 | 10 to 30 | < 2 |  |  |  |
| CC(C)(C)c1ccc(N(C(=O)[C@H]2CCCN2C#N)C(C(=O)N2CCOCC2)c2cccnc2)cc1 (single isomer, unassigned) [Compound 959 Isomer 1] |  | > 30 |  | 2 to 10 |  | IC50 (HCov OC43; read-out: OC43 IC50 (uM) MEDIAN, median, listed as 959 Isomer 1): 10 to 30 µM |
| CC(C)(C)c1ccc(N(C(=O)[C@H]2CCCN2C#N)C(C(=O)N2CCOCC2)c2cccnc2)cc1 (single isomer, unassigned) [Compound 959 Isomer 2] |  | 2 to 10 |  | < 2 |  | IC50 (HCov OC43; read-out: OC43 IC50 (uM) MEDIAN, median, listed as 959 Isomer 2): 2 to 10 µM |
| CC(C)(C)c1ccc(N(C(=O)[C@H]2CCCN2C#N)C(C(=O)N2CCNC(=O)C2)c2cccnc2)cc1 (single isomer, unassigned) [Compound 961 Isomer 1] |  | 2 to 10 |  | < 2 |  | IC50 (HCov OC43; read-out: OC43 IC50 (uM) MEDIAN, median, listed as 961 Isomer 1): 2 to 10 µM |
| CC(C)(C)c1ccc(N(C(=O)[C@H]2CCCN2C#N)C(C(=O)N2CCNC(=O)C2)c2cccnc2)cc1 (single isomer, unassigned) [Compound 961 Isomer 2] |  | > 30 |  | 2 to 10 |  | IC50 (HCov OC43; read-out: OC43 IC50 (uM) MEDIAN, median, listed as 961 Isomer 2): 10 to 30 µM |
| CC(C(=O)NC1CCC(F)(F)CC1)(c1cccnc1)N(C(=O)[C@H]1C[C@@](C)(O)CN1C#N)c1ccc(S(F)(F)(F)(F)F)cc1 (single isomer, unassigned) [Compound 1077 Isomer 1] |  | 10 to 30 |  | < 2 | 2 to 10 |  |
